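Interpolation was linear, between the two tested concentrations surrounding the appropriate level; five concentrations were tested over 48 hours in 96-well plates. TGI: concentration producing complete growth inhibition.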
Key:
Assay in all cases: NCI tumour cell line growth inhibition, 48 h
786-0 renal = system: 786-0 renal
A498 renal = system: A498 renal
A549 NSCLC = system: A549 NSCLC
ACHN renal = system: ACHN renal
CAKI-1 renal = system: CAKI-1 renal
CCRF-CEM leukemia = system: CCRF-CEM leukemia
COLO 205 colon = system: COLO 205 colon
DLD-1 colon = system: DLD-1 colon
DMS 114 small cell lung = system: DMS 114 small cell lung
EKVX NSCLC = system: EKVX NSCLC
HCC-2998 colon = system: HCC-2998 colon
HCT-116 colon = system: HCT-116 colon
HCT-15 colon = system: HCT-15 colon
HL-60(TB) leukemia = system: HL-60(TB) leukemia
HOP-18 NSCLC = system: HOP-18 NSCLC
HOP-62 NSCLC = system: HOP-62 NSCLC
HT29 colon = system: HT29 colon
IGROV1 ovarian = system: IGROV1 ovarian
K-562 leukemia = system: K-562 leukemia
KM12 colon = system: KM12 colon
KM20L2 colon = system: KM20L2 colon
LOX IMVI melanoma = system: LOX IMVI melanoma
LXFL 529 NSCLC = system: LXFL 529 NSCLC
M14 melanoma = system: M14 melanoma
M19-MEL melanoma = system: M19-MEL melanoma
MALME-3M melanoma = system: MALME-3M melanoma
MOLT-4 leukemia = system: MOLT-4 leukemia
NCI-H226 lung = system: NCI-H226 lung
NCI-H23 lung = system: NCI-H23 lung
NCI-H460 lung = system: NCI-H460 lung
NCI-H522 lung = system: NCI-H522 lung
OVCAR-3 ovarian = system: OVCAR-3 ovarian
OVCAR-4 ovarian = system: OVCAR-4 ovarian
OVCAR-5 ovarian = system: OVCAR-5 ovarian
OVCAR-8 ovarian = system: OVCAR-8 ovarian
RPMI-8226 leukemia = system: RPMI-8226 leukemia
RXF 393 renal = system: RXF 393 renal
RXF-631 renal = system: RXF-631 renal
SF-268 CNS = system: SF-268 CNS
SF-295 CNS = system: SF-295 CNS
SF-539 CNS = system: SF-539 CNS
SK-MEL-2 melanoma = system: SK-MEL-2 melanoma
SK-MEL-28 melanoma = system: SK-MEL-28 melanoma
SK-MEL-5 melanoma = system: SK-MEL-5 melanoma
SK-OV-3 ovarian = system: SK-OV-3 ovarian
SN12C renal = system: SN12C renal
SNB-19 CNS = system: SNB-19 CNS
SNB-75 CNS = system: SNB-75 CNS
SNB-78 CNS = system: SNB-78 CNS
SR leukemia = system: SR leukemia
SW-620 colon = system: SW-620 colon
TK-10 renal = system: TK-10 renal
U251 CNS = system: U251 CNS
UACC-257 melanoma = system: UACC-257 melanoma
UACC-62 melanoma = system: UACC-62 melanoma
UO-31 renal = system: UO-31 renal
XF 498 CNS = system: XF 498 CNS
HOP-92 NSCLC = system: HOP-92 NSCLC

CC1(C)CC(=O)C(C(=O)C(=O)NC2=C(Cl)C(=O)c3ccccc3C2=O)C(=O)C1
TGI (786-0 renal): > 100 µM | TGI (A498 renal): > 100 µM | TGI (A549 NSCLC): > 100 µM | TGI (ACHN renal): > 100 µM | TGI (CAKI-1 renal): > 100 µM | TGI (CCRF-CEM leukemia): > 100 µM | TGI (COLO 205 colon): > 100 µM | TGI (DLD-1 colon): > 100 µM | TGI (DMS 114 small cell lung): > 100 µM | TGI (EKVX NSCLC): > 100 µM | TGI (HCC-2998 colon): > 100 µM | TGI (HCT-116 colon): > 100 µM | TGI (HCT-15 colon): > 100 µM | TGI (HL-60(TB) leukemia): 47.2 µM | TGI (HOP-18 NSCLC): > 100 µM | TGI (HOP-62 NSCLC): > 100 µM | TGI (HT29 colon): > 100 µM | TGI (IGROV1 ovarian): > 100 µM | TGI (K-562 leukemia): > 100 µM | TGI (KM12 colon): > 100 µM | TGI (KM20L2 colon): > 100 µM | TGI (LOX IMVI melanoma): > 100 µM | TGI (LXFL 529 NSCLC): > 100 µM | TGI (M14 melanoma): > 100 µM | TGI (M19-MEL melanoma): > 100 µM | TGI (MALME-3M melanoma): > 100 µM | TGI (MOLT-4 leukemia): 94.4 µM | TGI (NCI-H226 lung): > 100 µM | TGI (NCI-H23 lung): > 100 µM | TGI (NCI-H460 lung): > 100 µM | TGI (NCI-H522 lung): 91.6 µM | TGI (OVCAR-3 ovarian): > 100 µM | TGI (OVCAR-4 ovarian): > 100 µM | TGI (OVCAR-5 ovarian): > 100 µM | TGI (OVCAR-8 ovarian): > 100 µM | TGI (RPMI-8226 leukemia): > 100 µM | TGI (RXF 393 renal): > 100 µM | TGI (RXF-631 renal): > 100 µM | TGI (SF-268 CNS): > 100 µM | TGI (SF-295 CNS): > 100 µM | TGI (SF-539 CNS): > 100 µM | TGI (SK-MEL-2 melanoma): > 100 µM | TGI (SK-MEL-28 melanoma): > 100 µM | TGI (SK-MEL-5 melanoma): > 100 µM | TGI (SK-OV-3 ovarian): > 100 µM | TGI (SN12C renal): > 100 µM | TGI (SNB-19 CNS): > 100 µM | TGI (SNB-75 CNS): > 100 µM | TGI (SNB-78 CNS): > 100 µM | TGI (SR leukemia): > 100 µM | TGI (SW-620 colon): > 100 µM | TGI (TK-10 renal): > 100 µM | TGI (U251 CNS): > 100 µM | TGI (UACC-257 melanoma): > 100 µM | TGI (UACC-62 melanoma): > 100 µM | TGI (UO-31 renal): > 100 µM | TGI (XF 498 CNS): > 100 µM

COC(=O)C12C3C4C1C1C2C3C41C(=O)O (stereo not drawn)
TGI (786-0 renal): > 100 µM | TGI (A498 renal): > 100 µM | TGI (A549 NSCLC): > 100 µM | TGI (ACHN renal): > 100 µM | TGI (CAKI-1 renal): > 100 µM | TGI (CCRF-CEM leukemia): > 100 µM | TGI (COLO 205 colon): > 100 µM | TGI (DLD-1 colon): > 100 µM | TGI (DMS 114 small cell lung): > 100 µM | TGI (EKVX NSCLC): > 100 µM | TGI (HCC-2998 colon): > 100 µM | TGI (HCT-15 colon): > 100 µM | TGI (HL-60(TB) leukemia): > 100 µM | TGI (HOP-18 NSCLC): > 100 µM | TGI (HOP-62 NSCLC): > 100 µM | TGI (HOP-92 NSCLC): > 100 µM | TGI (HT29 colon): > 100 µM | TGI (IGROV1 ovarian): > 100 µM | TGI (K-562 leukemia): > 100 µM | TGI (KM20L2 colon): > 100 µM | TGI (LXFL 529 NSCLC): > 100 µM | TGI (M14 melanoma): > 100 µM | TGI (M19-MEL melanoma): > 100 µM | TGI (MALME-3M melanoma): > 100 µM | TGI (MOLT-4 leukemia): > 100 µM | TGI (NCI-H226 lung): > 100 µM | TGI (NCI-H23 lung): > 100 µM | TGI (NCI-H460 lung): > 100 µM | TGI (OVCAR-3 ovarian): > 100 µM | TGI (OVCAR-4 ovarian): > 100 µM | TGI (OVCAR-5 ovarian): > 100 µM | TGI (OVCAR-8 ovarian): > 100 µM | TGI (RPMI-8226 leukemia): > 100 µM | TGI (RXF 393 renal): > 100 µM | TGI (RXF-631 renal): > 100 µM | TGI (SF-268 CNS): > 100 µM | TGI (SF-295 CNS): > 100 µM | TGI (SF-539 CNS): > 100 µM | TGI (SK-MEL-28 melanoma): > 100 µM | TGI (SK-MEL-5 melanoma): > 100 µM | TGI (SK-OV-3 ovarian): > 100 µM | TGI (SN12C renal): > 100 µM | TGI (SNB-19 CNS): > 100 µM | TGI (SNB-78 CNS): > 100 µM | TGI (SW-620 colon): > 100 µM | TGI (TK-10 renal): > 100 µM | TGI (U251 CNS): > 100 µM | TGI (UACC-257 melanoma): > 100 µM | TGI (UACC-62 melanoma): > 100 µM | TGI (UO-31 renal): > 100 µM | TGI (XF 498 CNS): > 100 µM
